# Test results published in the supplement of paper PMC10949913.
# Where a name gives a salt, the structure may show the parent alone. ± gives the standard deviation of the averaged measurements.
# Tests used:
# NCI-H295R = assay: ExcessHSA synergy score with TAK-243; higher = less synergy (negative = synergistic); settings: combined with: TAK-243 (MLN-7243) matrix, 9-point 1:2 dilution
# Experimental: (§1)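 Each drug was tested at 9 points with 1:2 dilution; viability was read by CellTiter-Glo as in the single-agent screen. Synergy is scored as ExcessHSA (sum of excess over highest single agent; negative = synergy) and the Beta interaction parameter (<1 synergy).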
# CU-ACC1 = assay: as above; settings: combined with: TAK-243 (MLN-7243) matrix, 9-point 1:2 dilution
# Experimental: as §1
SMILES,ExcessHSA synergy score with TAK-243 (NCI-H295R),ExcessHSA synergy score with TAK-243 (CU-ACC1)
CCN(c1cc(-c2ccc(CN3CCOCC3)cc2)cc(C(=O)NCc2c(C)cc(C)[nH]c2=O)c1C)C1CCOCC1 [Tazemetostat],-203,–
Cc1[nH]c2ccc(F)cc2c1-c1nc2c3cccnc3c3ncccc3c2[nH]1 [APTO-253],586,410
CCN(C(=O)c1cc(F)ccc1Oc1cncnc1N1CC2(CCN(C[C@H]3CC[C@H](NS(=O)(=O)CC)CC3)CC2)C1)C(C)C [SNDX-5613],50,-82.8
CO[C@@]12[C@H](COC(N)=O)C3=C(C(=O)C(C)=C(N)C3=O)N1C[C@@H]1N[C@@H]12 [Mitomycin C],200,133
CC[C@@]1(O)C(=O)OCc2c1cc1n(c2=O)Cc2cc3c(CN(C)C)c(O)ccc3nc2-1 [Topotecan hydrochloride],-194,-710
CO[C@H]1C[C@@H]2CC[C@@H](C)[C@@](O)(O2)C(=O)C(=O)N2CCCC[C@H]2C(=O)O[C@H]([C@H](C)C[C@@H]2CC[C@@H](OCCO)[C@H](OC)C2)CC(=O)[C@H](C)/C=C(\C)[C@@H](O)[C@@H](OC)C(=O)[C@H](C)C[C@H](C)/C=C/C=C/C=C/1C [Everolimus],-1040,-885
CCN(c1cc(-c2ccc(CN3CCOCC3)cc2)cc(C(=O)NCc2c(C)cc(C)[nH]c2=O)c1C)C1CCOCC1,–,-215
N[C@H]1CC[C@H](N[C@@H]2C[C@H]2c2ccccc2)CC1 [ORY-1001],-493,-384
Nc1nc2[nH]cc(CCc3ccc(C(=O)N[C@@H](CCC(=O)O)C(=O)O)cc3)c2c(=O)[nH]1,–,147
CC(C)c1cc(-c2n[nH]c(=O)n2-c2ccc3c(ccn3C)c2)c(O)cc1O [Ganetespib (STA-9090)],-59.8,400
O=C(N[C@@H](Cc1coc2ccccc12)B(O)O)[C@@H]1C[C@H]2CC[C@@H]1O2 [LMP7-IN-1],-55.7,-335
C[C@@H]1OCC2(CCN(c3cnc(Sc4ccnc(N)c4Cl)c(N)n3)CC2)[C@@H]1N [TNO-155],322,176
Nc1ncnc2c1ncn2C(C=O)OC(C=O)CO (configuration not stated) [Adenosine Dialdehyde],712,349
COC1CCC(n2c([C@@H]3CCCC(=O)N3c3ccc(F)c(F)c3)nc3cc(-c4c(C)noc4C)ccc32)CC1 (some centres not stated) [CBP/p300-IN-4],-244,-96.9
CC1(C)CCC2(CC1)N[C@@H](C(=O)N[C@@H]1CC[C@@H](C(N)=O)OC1)[C@H](c1ccnc(Cl)c1F)[C@]21C(=O)Nc2cc(Cl)ccc21 [Milademetan],-111,-380
Cc1cc(F)c(C(=O)Nc2cccc(-c3nncn3C(C)C)n2)cc1-n1cnc(C2CC2)c1 [Selonsertib],231,496
COc1cc2c(c(OC)n1)[C@]1(O)[C@H](O)[C@H](CN(C)C)[C@@H](c3ccccc3)[C@]1(c1ccc(C#N)cc1)O2 [Zotatifin],686,1170

SMILES,ExcessHSA synergy score with TAK-243 (NCI-H295R),ExcessHSA synergy score with TAK-243 (CU-ACC1)
CS(=O)(=O)c1ccc(Oc2cc(F)cc(C#N)c2)c2c1[C@H](O)[C@H](F)[C@@H]2F [PT-2977],801,217
Cc1[nH]c2ccccc2c1CCNCc1ccc(/C=C/C(=O)NO)cc1 [Panobinostat],-23.3,181
O=C(C[C@@H](C(F)F)n1ccc(F)n1)N1CCC(O)(Cn2cnc3c(cnn3-c3ccc(F)cc3)c2=O)CC1 [FT671],431,-97.6
CC1(C)CC[C@]2(NC(=O)C(C)(F)F)CC[C@]3(C)[C@H](C(=O)C=C4[C@@]5(C)C=C(C#N)C(=O)C(C)(C)[C@@H]5CC[C@]43C)[C@@H]2C1 [Omaveloxolone (RTA-408)],323,367
CNC(=O)c1cccc(-c2ccc3c(N4CCOC[C@@H]4C)nc(N4CCOC[C@@H]4C)nc3n2)c1 [Vistusertib],-549 ± 350,-211 ± 410
CN(Cc1cnc2nc(N)nc(N)c2n1)c1ccc(C(=O)N[C@@H](CCC(=O)O)C(=O)O)cc1 [Methotrexate],591,544
Nc1ccn([C@@H]2O[C@H](CO)[C@@H](O)C2(F)F)c(=O)n1 [Gemcitabine],236,-457
O=C(Nc1ccnc(C(F)(F)F)c1)c1cnn(-c2cccc3c(=O)[nH]ccc23)c1C(F)(F)F,-544,-300
CC1=C(/C=C/C(C)=C/C=C/C(C)=C\C(=O)O)C(C)(C)CCC1 [Isotretinoin],636,563
Nc1c(C(=O)c2ccccc2)sc2[nH]c(=O)c(C(=O)O)cc12,-51.1,-23.4
Cc1cnc(CNC(=O)c2c(=O)c3ccc(N4CCCN(C)CC4)nc3n3c2sc2ccccc23)cn1 [CX-5461],895,210
CN1C(=O)[C@@H](NC(=O)c2n[nH]c(Cc3ccccc3)n2)COc2ccccc21,714,359
CC(=O)N1CCC(Nc2cc(C(=O)NC[C@H](O)CN3CCc4ccccc4C3)ncn2)CC1,649,517
CCc1cc(C(N)=O)ccc1-n1nc(C(C)C)c2c(-n3cnc(-c4cnn(C)c4)c3)ccnc21 [Pimitespib],586,959
O=C(c1cc(Cc2n[nH]c(=O)c3ccccc23)ccc1F)N1CCN(C(=O)C2CC2)CC1 [Olaparib],859,468
Nc1ncn([C@@H]2O[C@H](CO)[C@@H](O)[C@H]2O)c(=O)n1 [5-Azacytidine],360,–
